Patent US6358885B1, “Substituted phenylheterocyclic herbicides” (Mississippi State University, priority 1992, dated 2002)

Legend:
wild oat = assay: Test B preemergence/postemergence greenhouse plant response rating 0 to 10; format: in vivo, Avena fatua; conditions: 0 to 10 scale
Summary of the method: (§1)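 Planted seeds are treated preemergence with compound dissolved in a non-phytotoxic solvent, while postemergence applications go onto plants of two to eighteen cm. Plants stay in the greenhouse twelve to sixteen days and are then rated visually relative to controls.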

cocklebur = assay: as above; format: in vivo, Xanthium pensylvanicum; conditions: 0 to 10 scale
Summary of the method: as §1

blackgrass [1] = assay: as above; format: in vivo, Alopecurus myosuroides; conditions: 0 to 10 scale
Summary of the method: as §1

sugar beet = assay: as above; format: in vivo, Beta vulgaris; conditions: 0 to 10 scale
Summary of the method: as §1

blackgrass [2] = assay: Test C preemergence/postemergence greenhouse plant response rating 0 to 100; format: in vivo, Alopecurus myosuroides; conditions: POSTEMERGENCE; for Plant response rating, Blackgrass: 62 g/ha, 0 to 100 scale
Summary of the method: (§2)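 Compounds in non-phytotoxic solvent applied preemergence to sandy loam one day after planting, postemergence at the 1–4 leaf stage, or to ~2.5 cm floodwater over silt loam.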

barnyardgrass = assay: Test C flood test plant response rating 0 to 100; format: in vivo, Echinochloa crus-galli; conditions: for Plant response rating, Barnyardgrass: flood test species listed under POSTEMERGENCE, 62 g/ha, 0 to 100 scale
Summary of the method: as §2

ryegrass = assay: Test C preemergence/postemergence greenhouse plant response rating 0 to 100; format: in vivo, Lolium multiflorum; conditions: POSTEMERGENCE; for Plant response rating Ryegrass: 62 g/ha, 0 to 100 scale
Summary of the method: as §2

cotton = assay: as above; format: in vivo, Gossypium hirsutum; conditions: POSTEMERGENCE; for Plant response rating, Cotton: 62 g/ha, 0 to 100 scale
Summary of the method: as §2

morningglory = assay: Test B preemergence/postemergence greenhouse plant response rating 0 to 10; format: in vivo, Ipomoea hederacea; conditions: 0 to 10 scale
Summary of the method: as §1

bedstraw = assay: as above; format: in vivo, Galium aparine; conditions: POSTEMERGENCE, 0 to 10 scale
Summary of the method: as §1

pigweed = assay: Test C preemergence/postemergence greenhouse plant response rating 0 to 100; format: in vivo, Amaranthusretroflexus; conditions: POSTEMERGENCE; for Plant response rating Pigweed: 62 g/ha, 0 to 100 scale
Summary of the method: as §2

sandbur = assay: Test G preemergence/postemergence greenhouse plant response rating 0 to 100; format: in vivo, Cenchrus echinatus; conditions: 0 to 100 scale
Summary of the method: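 Scoring: visual injury at 13 to 21 days post-application, compared with untreated controls. Planting: one species per pot in greenhouse medium. Dosing: compound in non-phytotoxic solvent, within one day of sowing for preemergence or at 2–4 leaves for postemergence.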

wheat = assay: Test C preemergence/postemergence greenhouse plant response rating 0 to 100; format: in vivo, Triticum aestivum; conditions: POSTEMERGENCE; for Plant response rating, Wheat: 62 g/ha, 0 to 100 scale
Summary of the method: as §2

[3] = POSTEMERGENCE section, flood test, Rate 1 g/ha
[4] = Rate 4 g/ha, under POSTEMERGENCE head (flood test species)
[5] = Rate 16 g/ha, under POSTEMERGENCE head (flood test species)

## C=CCN1C(=O)COc2cc(F)c(-c3nn4c(c3Cl)CCCC4)cc21 [Compound 33]
Wild oat; POSTEMERGENCE, Rate 10 g/ha
  Plant response rating, Wild oat: 4
Wild oat; POSTEMERGENCE, Rate 50 g/ha
  Plant response rating, Wild oat: 5
Wild oat; PREEMERGENCE, Rate 50 g/ha
  Plant response rating, Wild oat: 7
cocklebur; POSTEMERGENCE, Rate 10 g/ha
  Plant response rating, Cocklebur: 10
cocklebur; POSTEMERGENCE, Rate 50 g/ha
  Plant response rating, Cocklebur: 10
cocklebur; PREEMERGENCE, Rate 10 g/ha
  Plant response rating, Cocklebur: 0
cocklebur; PREEMERGENCE, Rate 50 g/ha
  Plant response rating, Cocklebur: 5
Blackgrass [1]; POSTEMERGENCE, Rate 10 g/ha
  Plant response rating, Blackgrass: 4
Blackgrass [1]; POSTEMERGENCE, Rate 50 g/ha
  Plant response rating, Blackgrass: 5
Blackgrass [1]; PREEMERGENCE, Rate 10 g/ha
  Plant response rating, Blackgrass: 3
Blackgrass [1]; PREEMERGENCE, Rate 50 g/ha
  Plant response rating, Blackgrass: 5
Sugar beet; POSTEMERGENCE, Rate 10 g/ha
  Plant response rating, Sugar beet: 10
Sugar beet; POSTEMERGENCE, Rate 50 g/ha
  Plant response rating, Sugar beet: 10
Sugar beet; PREEMERGENCE, Rate 50 g/ha
  Plant response rating, Sugar beet: 10
Blackgrass [2]
  Plant response rating, Blackgrass: 60
Blackgrass [2]; Rate 1 g/ha
  Plant response rating (0 to 100), Blackgrass: 30
Blackgrass [2]; Rate 4 g/ha
  Plant response rating (0 to 100), Blackgrass: 50
Blackgrass [2]; Rate 16 g/ha
  Plant response rating (0 to 100), Blackgrass: 50
barnyardgrass; [3]
  Plant response rating (0 to 100), Barnyardgrass: 35
barnyardgrass; [4]
  Plant response rating (0 to 100), Barnyardgrass: 65
barnyardgrass; [5]
  Plant response rating (0 to 100), Barnyardgrass: 95
barnyardgrass
  Plant response rating, Barnyardgrass: 100
ryegrass
  Plant response rating Ryegrass: 60
ryegrass; Rate 1 g/ha
  Plant response rating (0 to 100), Ryegrass: 30
ryegrass; Rate 4 g/ha
  Plant response rating (0 to 100), Ryegrass: 40
ryegrass; Rate 16 g/ha
  Plant response rating (0 to 100), Ryegrass: 50
cotton
  Plant response rating, Cotton: 100
cotton; Rate 1 g/ha
  Plant response rating (0 to 100), Cotton: 100
cotton; Rate 4 g/ha
  Plant response rating (0 to 100), Cotton: 100
cotton; Rate 16 g/ha
  Plant response rating (0 to 100), Cotton: 100
morningglory; POSTEMERGENCE, Rate 10 g/ha
  Plant response rating, Morningglory: 9
morningglory; POSTEMERGENCE, Rate 50 g/ha
  Plant response rating, Morningglory: 10
morningglory; PREEMERGENCE, Rate 50 g/ha
  Plant response rating, Morningglory: 10
bedstraw; Rate 10 g/ha
  Plant response rating, Bedstraw: 8
bedstraw; Rate 50 g/ha
  Plant response rating, Bedstraw: 9
pigweed
  Plant response rating Pigweed: 100
pigweed; Rate 1 g/ha
  Plant response rating (0 to 100), Pigweed: 100
pigweed; Rate 4 g/ha
  Plant response rating (0 to 100), Pigweed: 100
pigweed; Rate 16 g/ha
  Plant response rating (0 to 100), Pigweed: 100
sandbur; POSTEMERGENCE, Rate 125 g/ha
  Plant response rating, S. Sandbur: 0
sandbur; POSTEMERGENCE, Rate 250 g/ha
  Plant response rating, S. Sandbur: 0
sandbur; PREEMERGENCE, Rate 125 g/ha
  Plant response rating, S. Sandbur: 0
sandbur; PREEMERGENCE, Rate 250 g/ha
  Plant response rating, S. Sandbur: 0
wheat
  Plant response rating, Wheat: 60
wheat; Rate 1 g/ha
  Plant response rating (0 to 100), Wheat: 30
wheat; Rate 4 g/ha
  Plant response rating (0 to 100), Wheat: 40
wheat; Rate 16 g/ha
  Plant response rating (0 to 100), Wheat: 50

## C#CCN1C(=O)COc2cc(F)c(-c3nn4c(c3Cl)CCCC4)cc21 [Compound 34]
Wild oat; POSTEMERGENCE, Rate 10 g/ha
  Plant response rating, Wild oat: 5
Wild oat; POSTEMERGENCE, Rate 50 g/ha
  Plant response rating, Wild oat: 5
Wild oat; PREEMERGENCE, Rate 50 g/ha
  Plant response rating, Wild oat: 7
cocklebur; POSTEMERGENCE, Rate 10 g/ha
  Plant response rating, Cocklebur: 10
cocklebur; POSTEMERGENCE, Rate 50 g/ha
  Plant response rating, Cocklebur: 1
cocklebur; PREEMERGENCE, Rate 10 g/ha
  Plant response rating, Cocklebur: 0
cocklebur; PREEMERGENCE, Rate 50 g/ha
  Plant response rating, Cocklebur: 2
Blackgrass [1]; POSTEMERGENCE, Rate 10 g/ha
  Plant response rating, Blackgrass: 4
Blackgrass [1]; POSTEMERGENCE, Rate 50 g/ha
  Plant response rating, Blackgrass: 6
Blackgrass [1]; PREEMERGENCE, Rate 10 g/ha
  Plant response rating, Blackgrass: 4
Blackgrass [1]; PREEMERGENCE, Rate 50 g/ha
  Plant response rating, Blackgrass: 6
Sugar beet; POSTEMERGENCE, Rate 10 g/ha
  Plant response rating, Sugar beet: 10
Sugar beet; POSTEMERGENCE, Rate 50 g/ha
  Plant response rating, Sugar beet: 10
Sugar beet; PREEMERGENCE, Rate 50 g/ha
  Plant response rating, Sugar beet: 9
Blackgrass [2]
  Plant response rating, Blackgrass: 60
Blackgrass [2]; Rate 1 g/ha
  Plant response rating (0 to 100), Blackgrass: 20
Blackgrass [2]; Rate 4 g/ha
  Plant response rating (0 to 100), Blackgrass: 30
Blackgrass [2]; Rate 16 g/ha
  Plant response rating (0 to 100), Blackgrass: 50
barnyardgrass; [3]
  Plant response rating (0 to 100), Barnyardgrass: 60
barnyardgrass; [4]
  Plant response rating (0 to 100), Barnyardgrass: 75
barnyardgrass; [5]
  Plant response rating (0 to 100), Barnyardgrass: 95
barnyardgrass
  Plant response rating, Barnyardgrass: 100
ryegrass
  Plant response rating Ryegrass: 30
ryegrass; Rate 1 g/ha
  Plant response rating (0 to 100), Ryegrass: 10
ryegrass; Rate 4 g/ha
  Plant response rating (0 to 100), Ryegrass: 20
ryegrass; Rate 16 g/ha
  Plant response rating (0 to 100), Ryegrass: 30
cotton
  Plant response rating, Cotton: 100
cotton; Rate 1 g/ha
  Plant response rating (0 to 100), Cotton: 100
cotton; Rate 4 g/ha
  Plant response rating (0 to 100), Cotton: 100
cotton; Rate 16 g/ha
  Plant response rating (0 to 100), Cotton: 100
morningglory; POSTEMERGENCE, Rate 10 g/ha
  Plant response rating, Morningglory: 9
morningglory; POSTEMERGENCE, Rate 50 g/ha
  Plant response rating, Morningglory: 1
morningglory; PREEMERGENCE, Rate 50 g/ha
  Plant response rating, Morningglory: 2
bedstraw; Rate 10 g/ha
  Plant response rating, Bedstraw: 10
bedstraw; Rate 50 g/ha
  Plant response rating, Bedstraw: 10
pigweed
  Plant response rating Pigweed: 100
pigweed; Rate 1 g/ha
  Plant response rating (0 to 100), Pigweed: 90
pigweed; Rate 4 g/ha
  Plant response rating (0 to 100), Pigweed: 100
pigweed; Rate 16 g/ha
  Plant response rating (0 to 100), Pigweed: 100
sandbur; POSTEMERGENCE, Rate 125 g/ha
  Plant response rating, S. Sandbur: 0
sandbur; POSTEMERGENCE, Rate 250 g/ha
  Plant response rating, S. Sandbur: 0
sandbur; PREEMERGENCE, Rate 125 g/ha
  Plant response rating, S. Sandbur: 0
sandbur; PREEMERGENCE, Rate 250 g/ha
  Plant response rating, S. Sandbur: 0
wheat
  Plant response rating, Wheat: 50
wheat; Rate 1 g/ha
  Plant response rating (0 to 100), Wheat: 20
wheat; Rate 4 g/ha
  Plant response rating (0 to 100), Wheat: 30
wheat; Rate 16 g/ha
  Plant response rating (0 to 100), Wheat: 40
